Results taken from US20210338609A1, “COMPOSITIONS FOR ADMINISTRATION TO ANIMALS TO INCREASE GUT NON-PROTEIN NITROGEN LEVELS” (D.I.T Technologies Ltd, priority 2018, published 2021).
Read-outs that look alike come from different tables or passages of the source.

Molecular target: T1, urease (Canavalia ensiformis, UniProt P07374)
T1 construct: purchased Siemens Azostix reagent test strip
Type: biochemical
Settings: for urea converted to ammonia: within 60 seconds
Description: In an embodiment, the physiologically acceptable composition may have a pH of substantially 2. […] The capacity of a composition containing urea to produce ammonia toxicity in ruminant animals can be measured with a urease test strip. These strips contain the enzyme urease. Urease is specific to urea and catalyses the breakdown to ammonia, and the strip undergoes a colour change when the urease strip is exposed to ammonia.
These strips contain the enzyme urease and the indicator bromothymol blue. Urease is specific to urea and breaks it down to ammonia. […] Therefore, the strip turns from yellow to green when the urease strip is exposed to urea. One strip was exposed to a solution of urea at the rate of 1 gram per litre.

T1 sequence (P07374 whole entry, looked up): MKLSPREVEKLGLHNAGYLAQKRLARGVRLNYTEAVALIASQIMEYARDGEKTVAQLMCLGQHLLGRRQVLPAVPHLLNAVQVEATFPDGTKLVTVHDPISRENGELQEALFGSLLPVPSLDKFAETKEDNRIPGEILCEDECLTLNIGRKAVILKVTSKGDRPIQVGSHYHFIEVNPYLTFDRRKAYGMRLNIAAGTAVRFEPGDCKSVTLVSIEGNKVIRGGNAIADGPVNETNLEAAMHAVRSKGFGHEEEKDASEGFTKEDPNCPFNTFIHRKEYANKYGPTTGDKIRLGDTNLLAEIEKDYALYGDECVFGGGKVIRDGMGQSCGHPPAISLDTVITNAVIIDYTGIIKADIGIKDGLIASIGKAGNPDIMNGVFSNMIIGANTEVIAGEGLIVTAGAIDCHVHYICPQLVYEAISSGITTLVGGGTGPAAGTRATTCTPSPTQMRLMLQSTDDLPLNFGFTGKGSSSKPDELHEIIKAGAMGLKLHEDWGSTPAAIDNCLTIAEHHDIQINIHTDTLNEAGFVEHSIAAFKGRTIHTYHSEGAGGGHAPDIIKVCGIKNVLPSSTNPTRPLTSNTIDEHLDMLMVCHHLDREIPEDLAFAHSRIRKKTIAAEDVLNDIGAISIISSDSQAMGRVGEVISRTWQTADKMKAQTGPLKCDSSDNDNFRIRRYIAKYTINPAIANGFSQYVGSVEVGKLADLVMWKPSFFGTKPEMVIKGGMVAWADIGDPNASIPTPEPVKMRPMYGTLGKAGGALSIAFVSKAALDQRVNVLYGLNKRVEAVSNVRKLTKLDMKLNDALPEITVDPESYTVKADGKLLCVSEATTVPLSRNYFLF

SMILES | colour change of urease test strip (ammonia production) (urea phosphate at 5 grams per litre) | urea converted to ammonia (urea phosphate, 5 grams per litre) | colour change of urease test strip (ammonia production) (solution of urea at 1 gram per litre) | urea converted to ammonia (urea only mix, 1 gram per litre)
NC(N)=O.O=P(O)(O)O [urea phosphate] | unchanged | none |  | 
NC(N)=O [urea] |  |  | turned from the unexposed yellow colour to a deep green | all
